Test results from publication PMC8637440, “Structural Modifications Yield Novel Insights Into the Intriguing Pharmacodynamic Potential of Anti-inflammatory Nitro-Fatty Acids” (Frontiers in Pharmacology, 2021).

Tested on: Nrf-2
Assay: Nrf-2 induction in HCT-116 cells (Western blot and ELISA)
Format: cell-based, human
Conditions: 10 µM, 4 h, HCT-116, Western blot and ELISA
Protocol: The Nrf-2 and NF-κB transcription factors in the nuclear extracts were detected using an Nrf-2 Transcription Assay Kit (Cayman Chemical, # 600590) and NF-κB (p65 and p50) Transcription Factor Assay Kit (Cayman Chemical, # 10007889 and # 10006912). Prior to assay performance, the nuclear extracts were generated using a Nuclear Extraction Kit (Cayman Chemical, # 10009277). The assay was performed according to the manufacturer’s instructions. For all kits, the nuclear extracts were incubated overnight at 4°C. Development was carried out for 15–20 min or until the wells turned medium to dark blue. Five minutes after the stop solution had been added, the absorbance was read at 450 nm using a plate reader.
HCT-116 and A549 cells were washed with 1× PBS, and cell extracts were generated using a Nuclear Extraction Kit (Cayman Chemical, #10009277) according to the manufacturer’s instructions, whereas whole-cell lysates were obtained using SDS lysis buffer (55.5 mM Tris-HCl pH 6.8, 2.2% SDS, 9% glycerol supplemented with protease (cOmplete® Protease Inhibitor Cocktail, Roche, Mannheim, Germany) and phosphatase (PhosStop® Easy Pack, Roche, Mannheim, Germany) inhibitors. Protein concentrations from the nuclear and cytosolic fractions were determined with a bicinchoninic acid (BCA) protein assay kit (Pierce™, Rockford, Illinois, United States). Cytoplasmic and nuclear extracts (100 µg each) and 30 µg whole-cell lysates were diluted in 5× Laemmli loading dye and denatured for 10 min at 95°C, loaded on a 10% SDS polyacrylamide gel, and separated by gel electrophoresis for 15 min at 80 V followed by 60 min at 120 V. The separated proteins were blotted onto a nitrocellulose membrane (Hybond-C Extra, Amersham Biosciences Ltd., UK) using the Mini Trans-Blot® module (Bio-Rad, Hercules, California, United States) for 90 min at 90 V. The membrane was blocked with Odyssey blocking buffer (Li-Cor Biosciences, Bad Homburg, Germany) or 5% milk powder in TBS-T (Tris Buffered Saline with 0.1% Tween) for 1 h at room temperature (RT). The membranes were incubated with the primary antibodies overnight at 4°C, and then with the secondary antibodies for 1 h at RT. The primary antibodies were diluted 1:1,000 and the secondary antibodies were diluted 1:10,000 to 1:20,000. […]
FIGURE 2 Effects of NFA on Nrf-2 expression in colorectal cancer cells. HCT-116 cells were treated with 10 µM NFA and tBHQ and/or MMF for 4 h, and Nrf-2 levels were analyzed by western blotting and ELISA. […] (B) Nrf-2 expression levels were evaluated with an ELISA after incubation with NFA with different carbon chain lengths and Michael acceptor positions. […]

| SMILES | induction of Nrf-2 (protein levels / signaling) |
| --- | --- |
| CCCCCCCCC=C(CCCCCCCC(=O)O)[N+](=O)[O-] [18.9.9, 9-nitro-octadec-9-enoic acid] | strongest effects |
| CCCCCCCC/C=C\CCCCCCCC(=O)O [OA, oleic acid, reference compound] | did not affect |
